Read-outs that look alike come from different tables or passages of the source.
Tests used:
[1] = test system: Giardia lamblia; test: In vitro activity against Giardia lamblia ([3H]-thymidine incorporation); type: cell-based, strain WB (ATCC #30957); details: 42 hours, 37° C., read-out: IC50 ± S.D. In Vitro Antigiaridal Activity
Method: In vitro Biological Activity of Bis-Benzimidazoles Against Giardia lamblia
In brief, Giardia lamblia, strain WB (ATCC #30957) was grown to early log phase in filter sterilized Keister's medium with 10% heat-inactivated fetal bovine serum and 50 μg/ml ampicillin and 50 μg/ml gentamicin sulfate. Assay medium was modified Keister's medium plus 5% heat-inactivated fetal bovine serum. The assay procedure was carried out in accordance with the following steps:
(1) (0 hours) Serial dilutions of diamidines suspended in assay medium were prepared in duplicate rows of a 96-well microtiter plate and 2.5×10^4 trophozoites were added to each well. Plates were placed in an anaerobic chamber, gassed with nitrogen, and incubated at 37° C.
(2) (24 hours) Added [methyl-^3 H]-thmidine (1-10 Ci/mmol) to yield 1.5-2 μCi/well.
(3) (42 hours) Harvested cells with multimash-type cell harvester onto glass microfiber paper. Washed and dried filters were counted using a scintillation counter to determine the incorporation of [^3 H]-thymidine.
(4) Data on uptake of [^3 H]-thymidine were fitted to a logistic-logarithmic concentration response function by a non-linear regression method and drug concentrations required to inhibit 50% incorporation of [^3 H]-thymidine were determined.

[2] = Toxicity of the test compounds in rats (graded by local, clinical and histologic criteria); type: in vivo, Sprague-Dawley rats; details: for Toxicity: 10.0 mg/kg, daily i.v., 14 days
Method: (§1) Male Sprague-Dawley rats, barrier raised, non-certified virus free, weighing 150-200 g were obtained from Hilltop Laboratories and housed individually. Animals were begun on a low (8%) protein diet (ICN Biomedicals, Cincinnati, Ohio) and drinking water containing tetracycline (0.5 mg/ml) and dexamethasone (1.0 μg/ml). This treatment was given for the next 8 weeks, monitoring fluid intake daily and weighing animals weekly. Dilutions of the drinking solution were made when animals consumed too much fluid so as to prevent cortisone poisoning. At the beginning of the sixth week animals were divided into groups of eight or more animals each and the test compounds were administered daily by i.v. injection into the tail vein at the indicated dose for the next 14 days or orally by gavage for the next 14 days.

[3] = test system: Pneumocystis carinii; test: Treatment of Pneumocystis carinii pneumonia in rats: histologic scoring of lung cysts (GMS stain); type: in vivo, Sprague-Dawley rats; set-up: key to Mean Histologic Score: lung cyst score: 0.5 = <10 cysts, 4 = >50% of lung tissue involved; details: daily i.v., 14 days; for No. of animals with histologic score 0.5: 0.5 = less than 10 cysts per two sections; for No. of animals with histologic score 1: 1 = <10% of lung tissue involved; for No. of animals with histologic score 2: 2 = 10 to 25% of lung tissue involved; for No. of animals with histologic score 3: 3 = 26 to 50% of lung tissue involved; for No. of animals with histologic score 4: 4 = >50% of lung tissue involved; for Mean Histologic Score: score scale 0.5-4
Method: (§2) Induction and Treatment of Pneumocystis carinii in Sprague-Dawley Rats
as §1
All animals were sacrificed at the end of the eighth week by chloroform inhalation and the right lung was inflated in situ with 10% formalin and fixed for histologic examination. The fixed lung tissue was sectioned longitudinally and stained with Grocott's methenamine silver (GMS) stain which selectively stains the walls of th P. carinii cysts. Stained sections were coded and each section was scored by 2 examiners using a blinded protocol. Sections were read and scored according to modification of known procedures (P. Walzer et al., Antimicrob. Agents. Chemother. 32: 896-905 (1988)) as follows: 0.5=less than 10 cysts counted per two fully examinec sections; 1=scattered cysts with <10% of lung tissue involved; 2=scattered cysts with limited intense focal involvement and 10 to 25% of lung tissue involved; 3=scattered cysts with numerous intense areas of focal involvement and 26 to 50% of lung tissue involved; 4=cysts found throughout the tissue with numerous very intense focal areas of involvement having >50% of lung tissue involved.
The Chi square goodness of fit was used to calculate the p values of each test group when compared to the saline-treated and pentamidine-treated groups. The statistical analysis was carried out using the StatView 512+ software package (Brainpower, Inc., Calabasas, Calif.) on a Macintosh II computer.

[4] = test system: Pneumocystis carinii; test: Treatment of Pneumocystis carinii pneumonia in rats: cyst count in lung homogenate (cresyl violet); type: in vivo, Sprague-Dawley rats; details: for response vs control in vivo at 5 mg/kg / response vs control in vivo at 10 mg/kg: Pneumocystis carinii, iv, 336 h, read-out: Cysts/g Lung (% of Control)
Method: as §2, §1
The left lung was weighed, ground through a #60 wire mesh, and suspended 1:10 (w/v) in Hank's balanced salts solution without cations (HBSS-) and 10 mM β-mercaptoethanol (β-Me). Slides were prepared by spotting 5 μl of lung homogenate diluted 1:10 in HBSS- with β-Me and allowed to air dry. The slides were stained with cresyl violet and the cysts were counted using a blinded protocol. The number of cysts/g of original lung tissue was calculated and the groups were reported as the percent of saline-treated controls.

[5] = patients, intramuscular and intravenous routes; cited from earlier work
[6] = test system: Pneumocystis carinii; test: Anti-PCP activity in rats; type: in vivo, Sprague-Dawley rats
[7] = daily i.v., 14 days, vs. saline-treated controls
[8] = 10.0 mg/kg, daily i.v., 14 days, vs. saline-treated controls

Compound	IC50 ([1]; Giardia duodenalis) [µM]	No. of animals with histologic score 0.5 ([3]; 10.0 mg/kg) [animals]	No. of animals with histologic score 1 ([3]; 10.0 mg/kg) [animals]	No. of animals with histologic score 2 ([3]; 10.0 mg/kg) [animals]	No. of animals with histologic score 3 ([3]; 10.0 mg/kg) [animals]	No. of animals with histologic score 4 ([3]; 10.0 mg/kg) [animals]	Mean Histologic Score ([3]; 10.0 mg/kg)	response vs control in vivo at 10 mg/kg [4, 8] [%]	further results
N=C(N)c1ccc2nc(Cc3nc4ccc(C(=N)N)cc4[nH]3)[nH]c2c1 [Compound 1, bis[5-amidino-2-benzimidazolyl]methane]	307 ± 28.3	7	1	0	0	0	0.6	–	Toxicity [2]: 0
N=C(N)c1ccc2nc(CCCCCCCCc3nc4ccc(C(=N)N)cc4[nH]3)[nH]c2c1 [Compound 9, 1,8-bis[5-amidino-2-benzimidazolyl]octane]	0.04 ± 0.01	–	–	–	–	–	–	–	response vs control in vivo at 5 mg/kg [4, 7]: 31.8%; No. of animals with histologic score 0.5 ([3]; 5.0 mg/kg): 1 animals; No. of animals with histologic score 1 ([3]; 5.0 mg/kg): 0 animals; No. of animals with histologic score 2 ([3]; 5.0 mg/kg): 8 animals; No. of animals with histologic score 3 ([3]; 5.0 mg/kg): 3 animals; No. of animals with histologic score 4 ([3]; 5.0 mg/kg): 0 animals; Mean Histologic Score ([3]; 5.0 mg/kg): 2.1
c1cc2[nH]c(CCCc3nc4cc(C5=NCCN5)ccc4[nH]3)nc2cc1C1=NCCN1 [Compound 6]	49.5 ± 7.8	1	7	3	1	0	1.4	9.23	–
N=C(N)c1ccc2nc(/C=C/c3nc4ccc(C(=N)N)cc4[nH]3)[nH]c2c1 [Compound 10, trans-1,2-bis[5-amidino-2-benzimidazolyl]ethene]	–	–	–	–	–	–	–	–	response vs control in vivo at 5 mg/kg [4, 7]: 2.14%; No. of animals with histologic score 0.5 ([3]; 5.0 mg/kg): 1 animals; No. of animals with histologic score 1 ([3]; 5.0 mg/kg): 5 animals; No. of animals with histologic score 2 ([3]; 5.0 mg/kg): 5 animals; No. of animals with histologic score 3 ([3]; 5.0 mg/kg): 1 animals; No. of animals with histologic score 4 ([3]; 5.0 mg/kg): 0 animals; Mean Histologic Score ([3]; 5.0 mg/kg): 1.5
N=C(N)c1ccc2nc(CCCc3nc4ccc(C(=N)N)cc4[nH]3)[nH]c2c1 [Compound 5, 1,3-bis[5-amidino-2-benzimidazolyl]propane]	32.5 ± 6.4	0	1	1	7	3	3.0	64.6	–
N=C(N)c1ccc(OCCCCCOc2ccc(C(=N)N)cc2)cc1 [pentamidine isethionate]	–	–	–	–	–	–	–	–	side effects / fatalities [5]: Some fatalities have been attributed to severe hypotension, hypoglycemia, and cardiac arrhythmias
N=C(N)c1ccc(OCCCCCOc2ccc(C(=N)N)cc2)cc1 [Pentamidine, reference compound]	–	12	38	17	4	0	–	–	response vs control in vivo at 10 mg/kg [4]: 3.13%
1,4-bis[5-amidino-2-benzimidazolyl]propane [Compound 7]	–	10	2	0	0	0	0.6	–	IC50 [1]: 8.15 ± 6.9 µM; Toxicity [2]: 0; Cysts/g Lung (% of Control) [4, 8]: 1.67 % of Control
N=C(N)c1ccc2nc(CCc3nc4ccc(C(=N)N)cc4[nH]3)[nH]c2c1 [Compound 3, 1,2-bis[5-amidino-2-benzimidazolyl]ethane]	0.33 ± 0.15	7	3	0	0	0	0.7	2.05	–
c1cc2[nH]c(CCCCc3nc4cc(C5=NCCN5)ccc4[nH]3)nc2cc1C1=NCCN1 [Compound 8]	14.5 ± 3.5	12	0	0	0	0	0.5	0.07	activity against PCP when administered orally ([6]; oral, daily dose of 25 mg/kg): exhibited some activity against PCP; potency as an anti-PCP agent relative to pentamidine ([6]; vs. pentamidine): over four times more potent; toxicity relative to the parent compound ([2]; vs. pentamidine (parent compound)): significantly less toxic than the parent compound

Reference: patent US5428051A, “Methods of combating pneumocystis carinii pneumonia and compounds useful therefor” (priority 1992, dated 1995)
